Experimental data: PubChem BioAssay (NCI)
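Following 48 hours of exposure in 96-well plates, responses at five concentrations were used to interpolate endpoints linearly. The concentration for full growth arrest is given as TGI.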

What was measured:
Experiment in all cases: inhibition of tumour cell growth, NCI panel, 48 h
HOP-92 NSCLC = tested on: HOP-92 NSCLC
RPMI-8226 leukemia = tested on: RPMI-8226 leukemia
SK-MEL-28 melanoma = tested on: SK-MEL-28 melanoma
KM12 colon = tested on: KM12 colon
SF-268 CNS = tested on: SF-268 CNS
MALME-3M melanoma = tested on: MALME-3M melanoma
DU-145 prostate = tested on: DU-145 prostate
MDA-MB-231 breast = tested on: MDA-MB-231 breast
MCF7 breast = tested on: MCF7 breast
U251 CNS = tested on: U251 CNS
UACC-62 melanoma = tested on: UACC-62 melanoma
NCI-H460 lung = tested on: NCI-H460 lung
SNB-19 CNS = tested on: SNB-19 CNS
K-562 leukemia = tested on: K-562 leukemia
TK-10 renal = tested on: TK-10 renal
OVCAR-8 ovarian = tested on: OVCAR-8 ovarian
HL-60(TB) leukemia = tested on: HL-60(TB) leukemia
SR leukemia = tested on: SR leukemia
SF-539 CNS = tested on: SF-539 CNS

Compound | TGI (HOP-92 NSCLC) [µM] | TGI (RPMI-8226 leukemia) [µM] | TGI (SK-MEL-28 melanoma) [µM] | TGI (KM12 colon) [µM] | TGI (SF-268 CNS) [µM] | TGI (MALME-3M melanoma) [µM] | TGI (DU-145 prostate) [µM] | TGI (MDA-MB-231 breast) [µM] | TGI (MCF7 breast) [µM] | TGI (U251 CNS) [µM] | TGI (UACC-62 melanoma) [µM] | TGI (NCI-H460 lung) [µM] | TGI (SNB-19 CNS) [µM] | TGI (K-562 leukemia) [µM] | TGI (TK-10 renal) [µM] | TGI (OVCAR-8 ovarian) [µM] | TGI (HL-60(TB) leukemia) [µM] | TGI (SR leukemia) [µM] | TGI (SF-539 CNS) [µM]
C=CCOC(=O)C1=C(CCC[C@@H](C)O[Si](C)(C)C(C)(C)C)N=C(N)N2[C@H](CCO)CC[C@@H]12 | 27.2 | 27.6 | 31.3 | 24.1 | 31 | 34.9 | 28.6 | 29.6 | 25.7 | 24.7 | 33 | 31.5 | 29 | 21.5 | 34.3 |  |  |  | 
O=C(OCc1ccccc1)N(CCCCN(CCCNCc1ccccc1)C(=O)OCc1ccccc1)CCCNCc1ccccc1 | 2.82 | 0.605 | 3.08 | 1.6 |  | 3.29 | 2.55 | 2.56 | > 100 |  | 3.19 | 0.372 | 1.11 |  | 3.43 | 2.79 | 0.507 |  | 
CCOC(=O)c1[nH]cc(C)c1-c1ccc2c(-c3ccccc3)nc3ccccc3n12 | 14 |  | 14.3 | 13.3 | 17.1 |  | 13.4 | 12.8 | 14.3 | 11.8 | 10.8 | 12 |  | 9.13 | 15.2 | 16.7 |  | 5.34 | 9.04
COC(=O)C1=C(C)C=C(N2CCOCC2)C(C(=O)OC)C1c1ccccc1 (configuration not stated) | > 10 | > 10 | > 10 | > 10 | > 10 | > 10 | > 10 | > 10 | > 10 | > 10 |  | > 10 | > 10 | > 10 | > 10 | > 10 |  |  | > 10
COc1ccc(C2CC3(c4ccccc4)ON=C(c4ccccc4)N3c3ccccc3S2)cc1 (configuration not stated) |  | > 100 | > 100 | > 100 | > 100 | > 100 | > 100 | > 100 | > 100 | > 100 | > 100 | > 100 |  |  | > 100 | > 100 |  |  | > 100
COc1cccc(NC(=O)C(=O)C(C(=O)c2ccccc2F)C2OC(=O)c3ccccc32)c1 (configuration not stated) | > 100 | 96.1 | > 100 | > 100 | > 100 |  |  |  |  | 36.2 | > 100 | > 100 | > 100 | > 100 | > 100 | 60.9 | 54.1 | 48.5 | 57.3
CSc1ncc2c(n1)sc1c(=O)n(-c3ccccc3)cnc12 | > 100 | > 100 | > 100 | > 100 | > 100 | > 100 | > 100 | > 100 |  | > 100 | > 100 | > 100 | > 100 | > 100 | > 100 | > 100 |  | > 100 | 
COc1ccccc1/C=C1\NC(=S)N(/C=C2\C(=O)Oc3ccccc3C2=O)C1=O | 53.3 |  | > 100 | > 100 | > 100 |  | > 100 | > 100 | > 100 | > 100 | > 100 | > 100 | > 100 |  | > 100 | > 100 | > 100 |  | 96.7
CCCCCC/C=C1\CCC(CN2CCOCC2)C1=O (configuration not stated) | 34.7 | > 100 | 30.7 | 24.7 | 43 | 30.6 |  |  |  | 29.3 | 32.1 | > 66 | 38.9 | 16.4 | 26.4 | 32.7 | 15.7 | 13.6 | 31.2
O=C(NCCNCCCNC(=O)c1cc(-c2ccccc2)nc2ccccc12)c1cccc(OCc2ccccc2)c1OCc1ccccc1 | 3.23 | 5.05 | 3.25 | 3.37 |  | 3.58 | 3.26 | 3.21 | 3.1 |  | 3.61 | 3.8 |  | 3.48 | 3.17 | 3.15 | 3.19 |  | 3.19
COC(=O)C1(C(=O)OC)N=C(C)OC1/C=C/c1ccccc1 (configuration not stated) | > 100 | > 100 | > 100 | > 100 |  |  | > 100 |  | > 100 | > 100 | > 100 | > 100 | > 100 | > 100 | > 100 | > 100 | > 100 | > 100 | 
O=c1cn[nH]c(=S)n1/N=C/c1c[nH]c2ccccc12 |  | > 100 | > 100 | > 100 | > 100 | > 100 | > 100 |  | > 100 | > 100 | > 100 | > 100 | > 100 | > 100 |  | 93.9 | 49.5 | > 100 | > 100
COC1(O)c2cccc(Cl)c2C(=O)N1C1(C(N)=O)CCCCC1 (configuration not stated) | 40.7 | > 100 | > 100 | > 100 | > 100 | > 100 |  |  | > 100 | > 100 | > 100 | > 100 | > 100 | > 100 |  | > 100 | > 100 |  | > 100
O=C(O)C12CCCCC1CCCC2 (configuration not stated) | > 100 | > 100 | > 100 | > 100 | > 100 |  |  |  |  | > 100 | > 100 | > 100 | > 100 | > 100 | > 100 | > 100 | > 100 |  | > 100
CC(C)(CCCCC(C)(C)[N+](C)(C)C)[N+](C)(C)C |  | > 100 | > 100 |  | > 100 |  |  | > 100 | > 100 | > 100 |  | > 100 | > 100 | > 100 | > 100 | > 100 | > 100 | > 100 | > 100
Brc1ccc2c(c1)-c1nc3nc4c(cc3cc1CC2)CCc1ccc(Br)cc1-4 | > 100 | > 100 | > 100 | > 100 | > 100 | > 100 |  | > 100 | > 100 | > 100 |  | > 100 | > 100 | > 100 | > 100 | > 100 |  |  | > 100
Cn1c(=O)sc2cc(C(=S)N3CCC(Cc4ccccc4)CC3)ccc21 |  | > 100 | > 100 | > 100 | > 100 |  | > 100 | > 100 | > 100 | 78.1 | > 100 | > 100 | > 100 | > 100 | > 100 | > 100 | > 100 | > 100 | > 100
COC(=O)[C@H](CC(C)C)Nc1c(O)c2c(c(O)c1Cl)C(=O)C=CC2=O | > 10 | > 10 | > 10 | > 10 | > 10 | > 10 | > 10 | > 10 |  | > 10 | > 10 | > 10 | > 10 | > 10 | > 10 | > 10 | > 10 | > 10 | > 10
O=C1C(Cl)N(c2cccc([N+](=O)[O-])c2)C1c1c[nH]c2ccccc12 (configuration not stated) | 47.9 | 52.2 | 73.5 | 49.7 | > 100 | 14.1 |  |  |  | 56.6 | 32.4 | 35.4 | 57.8 | 64.1 | 59.4 | 60.4 | > 100 | 57 | 40.7
CC(=O)NC(Cc1ccsc1)C(=O)O (configuration not stated) | > 100 | > 100 | > 100 | > 100 | > 100 | > 100 |  |  | > 100 | > 100 | > 100 | > 100 | > 100 | > 100 |  | > 100 | > 100 |  | > 100
CC(=O)Nc1nnc(S(C)(=O)=O)s1 | > 100 | > 100 | > 100 | > 100 | > 100 | > 100 | > 100 |  | > 100 | > 100 |  | > 100 | > 100 | > 100 | > 100 | > 100 | > 100 | > 100 | > 100
CC(C)(C)C1=CC(=C2C(=O)C(=O)c3ccccc3C2=O)C=C(C(C)(C)C)C1=O | 82.9 | 86.9 | > 100 | > 100 | > 100 | 58.7 |  |  |  | > 100 | > 100 | > 100 | > 100 | > 100 | > 100 | > 100 | > 100 |  | > 100
Cc1c2ccncc2c(C)c2c1[nH]c1ccc(OCC(F)(F)F)cc12 |  | 5.32 | 3.15 | 2.79 | 3.06 | 3.23 |  |  |  | 2.98 |  | 2.46 | 3.03 | 3.91 | 3.58 | 2.59 |  | 4.2 | 3.16
COc1cc(C2C(Cl)C(=O)N2NC(=O)c2ccc(N)cc2)cc(Br)c1O (configuration not stated) | 39.8 | 51.5 | 31.6 | 30.7 | 19.7 | 27.5 |  |  |  | 10.1 | 30.4 | 31.4 | 24 | 48.7 | 32.5 | > 100 | 27.6 |  | 35.2
Fc1ccc(-c2sc(-c3cccs3)cc2Cc2cccs2)cc1 | > 100 |  | > 100 | > 100 | > 100 | > 100 | > 100 | > 100 | > 100 | > 100 | > 100 | > 100 | > 100 | > 100 | > 100 | > 100 | > 100 |  | > 100
COC(=O)C(C/C=C(\C)c1ccc(Cl)cc1)C(C)=O (configuration not stated) | 64.2 | > 69 | > 100 | > 100 | > 100 | > 100 |  |  | > 100 | > 86.6 | > 100 | > 100 | > 100 | > 100 |  | > 100 | 38.3 |  | > 100
COC(=O)C1=C(OC(=O)/C=C/c2ccc(Cl)cc2)C(C(=O)OC)[C@@]2(O)[C@@H](C(=O)OC)[C@H](C)C[C@@H]1[C@@H]2C(=O)OC (some centres not stated) |  |  | 88.7 | > 100 | 42.9 | 38.2 | > 100 | 64.9 |  | > 100 | 54.1 | > 100 | > 100 | > 100 | > 100 | 41.6 | 36.1 |  | > 100
O=Cc1ccc(CCl)cc1 | 52.5 |  | 32.9 | 60.3 | 66.9 |  |  |  |  | 35.4 | 27.3 | 37.1 | 29.4 | > 100 | 45.5 | 35.2 | 23.9 | > 100 | 31.6
CSc1nc2c(ncn2C2OCC(O)C(O)C2O)c(=O)n1C (configuration not stated) | > 100 | > 100 | > 100 | > 100 | > 100 | > 100 |  |  | > 100 | > 100 | > 100 | > 100 | > 100 | > 100 |  | > 100 | > 100 |  | > 100
